Like-named read-outs stand apart in the source and are kept apart here.
Key:
[1] = tested on: SK-MEL-28 cells; experiment: HGF-stimulated melanoma proliferation cell assay; type: cell-based; conditions: Homo sapiens, 72 h
Method: SK-MEL-28 cells were added to 96-well plates (2,500 cells/well). Effects on cell proliferation were assessed by incubation of SK-MEL-28 cells in complete media, media containing 50 ng/mL HGF, or media mixed 1:1 with MRC-5 fibroblast-conditioned media. Plates were incubated for 72 h.

[2] = tested on: SK-MEL-28 and SK-MEL-5 cells (pERK, pMET, AKT); experiment: HGF-stimulated melanoma cell signal transduction assay; type: cell-based; conditions: 50 nM
Method: SK-MEL-5 and SK-MEL-28 cells were added to 12-well plates at 450,000 and 250,000 cells/well, respectively, and incubated overnight. […] Cells were then stimulated with 50 ng/mL HGF for 1 hr. Antibodies were obtained from Cell Signaling Technology.

[3] = tested on: PyMT mammary tumor; experiment: PyMT syngeneic breast cancer model; type: in vivo, mice
Method: Female FVB/NJ mice were implanted in the 4th mammary fat pad with one million cells that had been dissociated from tumor fragments from MMTV-PyMT donor mice. […] Mice (n=10/group) were dosed for three weeks, then, primary tumor and lungs were collected and fixed. Lung sections were stained with H&E at Premier Laboratory. Lung metastases (≧10 cells) were counted manually via microscopy. Data were analyzed via one-way analysis of variance (ANOVA), with post-hoc analysis by the method of Holm-Sidak. For analysis of TIE2-positive macrophages, tumor sections were stained with TIE2 and CD31 antibodies at Premier Laboratory. The density of TIE2-positive cells at the stroma/tumor boundary in each tumor was scored using 0=no staining, 1=low, 2=medium, and 3=high.

[4] = tested on: U87-MG xenograft glioma; experiment: Orthotopic U87-MG xenograft efficacy model (BLI); type: in vivo, mice; conditions: after two weeks of treatment; bevacizumab 5 mg/kg IP every three days; Compound 1 10 mg/kg BID
Method: Protocol for in vivo xenograft efficacy study. […] Treatments began on Day 31.
The tumor cells were injected intracerebroventricularly (ICV) and tumor growth was monitored in vivo by quantitation of luciferase-mediated BLI.

[5] = tested on: circulating TIE2+ and TIE2+/MET+ monocytes; experiment: Flow cytometry of circulating TIE2/MET-expressing monocytes from U87-MG xenograft model; type: in vivo, mice; conditions: single agents; after five weeks of treatment
Method: Flow cytometry of circulating TIE2/MET-expressing monocytes from U87-MG xenograft model. Peripheral blood samples were fixed using Lyse/Fix buffer (BD Biosciences, San Jose, Calif.). BD Fc Block was added and cells were stained with CD11b-PECy7 and Gr1-APC antibodies (BD Pharmingen), and TIE2-PE and MET-FITC antibodies (eBioscience) or isotype controls. Data was collected on an Accuri C6 cytometer. Monocytes were gated using side and forward scatter.
To monitor these monocytes in the U87 survival model, peripheral monocytes were gated on CD11b+/Grl-surface markers and TIE2^+ and/or TIE2^+/MET^+ cells quantitated. In the U87 glioma survival study, we observed both of these TIE2^+ expressing monocyte populations in the circulation of vehicle-treated mice after five weeks of treatment. […] The lowered population of both of these TIE2^+ monocyte populations in the combination cohort was consistent with greater survival benefit (FIG. 6).

[6] = tested on: GSC11 glioblastoma cells; experiment: GSC11 glioma stem cell patient-derived xenograft model (tumor volume, immunohistochemistry); type: in vivo, mice
Method: (§1) For the in vivo experiments, 4- to 6-week-old female nude mice that were strictly inbred at The University of Texas MD Anderson Cancer Center and maintained in the MD Anderson Veterinary in accordance with institutional guidelines were used. For the in vivo experiments, GSC11 (5×10^5) or GSC17 (5×10^4) glioblastoma cells were implanted intracranially into nude mice. […] Control mice for these cohorts were treated with phosphate-buffered saline by i.p. injection and/or with 0.4% HPMC vehicle by oral gavage. One cohort of 10 mice per group were treated continuously and followed for survival. A separate cohort of 9 mice per group were treated continuously until the designated time point, and the tumors from these mice were extracted at 3, 4, 5 weeks in GSC11 xenograft mice model and at 3.5, 4.5, 5.5 weeks in GSC17 xenograft mice model after the start of treatment.
(§2) When the mice treated for the designated time period developed signs and symptoms of advanced tumors, they were euthanized, and their brains were removed, fixed in 4% formaldehyde for 24 hours, and embedded in paraffin. The tissues were then sectioned serially (4 μm) and stained with hematoxylin and eosin (Sigma-Aldrich). Tumor formation and phenotype were determined by histologic analysis of the hematoxylin- and eosin-stained sections. The tumor volume, greatest longitudinal diameter (length), and greatest transverse diameter (width) were measured using an external caliper and Adobe Illustrator software. The tumor volumes were calculated by the following formula: volume=½(length×width^2).
(§3) For immunohistochemical analyses, the tissue sections were deparaffinized and subjected to graded rehydration. After blocking the tissue in 5% horse and goat serum and antigen retrieval solution (citrate buffer, pH 6.0), we incubated the tissue sections overnight at 4° C. with primary antibodies against Factor VIII (1:500; A0082, Dako) to assess microvessel formation, vimentin (1:100; M0725, Dako) to assess mesenchymal marker expression, F4/80 (1:50; 123102, BioLegend) to assess monocyte infiltration, nestin (1:300; Ab6142, Abcam) to assess glioma stem cell marker expression, HGF (1:200; LS-B4657, LSBio), and TIE2 (1:50; Santa Cruz Biotechnology) to assess TIE2-expressing monocyte infiltration. Texas red fluorescein isothiocyanate-conjugated secondary antibodies or anti-rat immunoglobulin G antibodies (Invitrogen) were used for 1 hour at room temperature.
(§4) All statistical analyses were conducted with the GraphPad 6 (InStat) software for Windows 7. Survival analysis was conducted using the Kaplan-Meier method, and differences in survival between treatment groups were assessed using the log-rank test. All other comparisons were performed using an unpaired two-tailed Student t-test. Summary statistics for continuous data are expressed as the mean±standard error of the mean. P values less than 0.05 were considered statistically significant. The nestin staining was assessed using the Image-Pro Plus system version 7.0 (Media Cybernetics) in ×10 fields of at least three tumor samples per group with three to four different sections per tumor sample.

[7] = tested on: GSC17 glioblastoma cells; experiment: GSC17 glioma stem cell patient-derived xenograft model (tumor volume, immunohistochemistry); type: in vivo, mice
Method: as §1, §2, §3, §4

CC(C)(C)c1nc(-c2cccc(NS(=O)(=O)c3c(F)cccc3F)c2F)c(-c2ccnc(N)n2)s1 [dabrafenib]
IC50 ([1]; 50 ng/mL HGF or MRC-5 fibroblast-conditioned media, read-out: IC50, proliferation of SK-MEL-28 with HGF or fibroblast-conditioned media): > 10000 nM | IC50 ([1]; complete media, read-out: IC50, proliferation of SK-MEL 28): 10.6 nM | Phosphorylation of ERK upon HGF stimulation ([2]; 50 ng/mL HGF 1 hr): ERK remained fully phosphorylated | Phosphorylation of ERK ([2]; no HGF): inhibited phosphorylation

CC(=O)O[C@H]1C(=O)[C@@]2(C)[C@H]([C@H](OC(=O)c3ccccc3)[C@]3(O)C[C@H](OC(=O)[C@H](O)[C@@H](NC(=O)c4ccccc4)c4ccccc4)C(C)=C1C3(C)C)[C@]1(OC(C)=O)CO[C@@H]1C[C@@H]2O [paclitaxel, reference compound]
Tumor growth inhibition (TGI) ([3]; after dosing for three weeks, paclitaxel 10 mg/kg i.v. every 5 days, Compound 1 15 mg/kg twice daily): 42% | Reduction of TIE2 score (stromal density of TIE2+ cells) ([3]; same dosing): did not reduce | Reduction of lung metastases compared to controls ([3]; same dosing): 64%

bevacizumab [reference compound]
Decrease in BLI signal compared to vehicle [4]: 63% | Numbers of circulating TIE2+ and TIE2+/MET+ monocyte populations [5]: did not alter | Tumor volume at 3 weeks ([6]; GSC11, bevacizumab 10 mg/kg i.p. twice per week, Compound 1 10 mg/kg oral twice daily): 14.3±6.9 mm^3 | Tumor volume at 4 weeks ([6]; GSC11, same dosing): 30.7±4.2 mm^3 | Tumor volume at 5 weeks ([6]; GSC11, same dosing): 46.6±4.5 mm^3 | Factor VIII-positive area ([6]; GSC11 model): 3.3±1.1% | Nestin-positive area ([6]; GSC11 xenograft mouse model): 59.8±6.0% | Mesenchymal tumor marker vimentin / EMT (immunohistochemistry) ([6]; GSC-11 glioma model): therapy-induced increase in EMT | Macrophage infiltration into tumor (F4/80 IHC staining) ([6]; GSC-11 glioma xenograft model): stimulating the influx of tumor-promoting macrophages | Tumor volume at 3.5 weeks ([7]; GSC17, bevacizumab 10 mg/kg i.p. twice per week, Compound 1 10 mg/kg oral twice daily): 0.4±0.4 mm^3 | Tumor volume at 4.5 weeks ([7]; GSC17, same dosing): 0.05±0.03 mm^3 | Tumor volume at 5.5 weeks ([7]; GSC17, same dosing): 9.6±4.6 mm^3 | Factor VIII-positive area ([7]; GSC17 xenograft mouse model): 3.0±0.3% | Nestin-positive area ([7]; GSC17 xenograft mouse model): 20.6±2.7% | Mesenchymal tumor marker vimentin / EMT (immunohistochemistry) ([7]; GSC-17 glioma model): therapy-induced increase in EMT | Tumor infiltration of TIE2-positive/F4/80-positive cells ([7]; GSC-17 glioma xenograft model): increased

From patent publication US20170079966A1, “INHIBITION OF TUMOR CELL INTERACTIONS WITH THE MICROENVIRONMENT RESULTING IN A REDUCTION IN TUMOR GROWTH AND DISEASE PROGRESSION” (Deciphera Pharmaceuticals, LLC, priority 2014, published 2017)
